Results: US20250214986A1, “P2X3 INHIBITOR COMPOUND, SALT THEREOF, POLYMORPH THEREOF AND USE THEREOF” (HUMANWELL HEATHCARE (GROUP) CO., LTD., priority 2022, published 2025)
Counter-ions that a name gives are not always drawn.

What was measured:
Format in all cases: physicochemical
[1] = Solid state stability (XRPD and HPLC); settings: for change of HPLC purity after placement under the corresponding conditions: 60° C. sealed 1 day, 25° C./60% RH and 40° C./75% RH uncovered 1 week/1 month
Procedure: In the test, the purity, dynamic solubility and stability were tested using an Agilent 1260 high-performance liquid chromatograph, the molar ratio of salt-forming ions was tested using ion chromatography, and the analytical conditions are shown in Tables A-4 and A-5 below. [table]

[2] = Dynamic solubility experiment at 37° C.
Procedure: In the test, the purity, dynamic solubility and stability were tested using an Agilent 1260 high-performance liquid chromatograph, the molar ratio of salt-forming ions was tested using ion chromatography, and the analytical conditions are shown in Tables A-4 and A-5 below.
Solids at a feeding concentration of 10 mg/mL (calculated based on free base) were rotationally mixed with corresponding vehicles at 37° C. […] After sampling at each time point, the samples were centrifuged (at 10000 rpm) and filtered (through a 0.45 μm PTFE filter head). The HPLC concentrations and pH values of the filtrates were determined.
100.2 mg of NaCl and 50.3 mg of Triton X-100 were weighed into a 50 mL volumetric flask and then completely dissolved by addition of purified water. 816 μL of 1 M hydrochloric acid was added, and the pH was adjusted to 1.8 with 1 M hydrochloric acid or 1 M NaOH solution. The mixed solution was brought to the volume by addition of purified water.
170.5 mg of anhydrous NaH2PO4, 22.2 mg of NaOH, and 310.9 mg of NaCl were weighed into a 50 mL volumetric flask and then completely dissolved by addition of purified water. The pH was adjusted to 6.5 with 1 M hydrochloric acid or 1 M NaOH solution. The mixed solution was brought to the volume by addition of purified water. Subsequently, 55.1 mg of SIF powder was weighed into a 25 mL volumetric flask and completely dissolved with the above solution, and the mixed solution was brought to the volume.
0.21 mL of glacial acetic acid, 101.6 mg of NaOH, and 295.4 mg of NaCl were added into a 25 mL volumetric flask and then completely dissolved by addition of about 20 mL of purified water. The pH was adjusted to 5.0 with 1 M hydrochloric acid or 1 M NaOH solution. The mixed solution was brought to the volume by addition of purified water, and then 280.8 mg of SIF powder was weighed into the flask and completely dissolved.

[3] = Hygroscopicity by dynamic vapor sorption (DVS); settings: for crystalline form after DVS test: 0% RH to 95% RH to 0% RH; for vapor sorption / hygroscopicity: 25° C./80% RH; for hygroscopicity: DVS
Procedure: Dynamic vapor sorption (DVS) curves were acquired on a DVS IntrInsic from Surface Measurement Systems (SMS). The relative humidity at 25° C. was corrected with the deliquescence points of LiCl, Mg(NO3)2, and KCl.
Starting at 0% RH, the test acquired the percentage changes in mass of the samples when the humidity changed (0% RH to 95% RH to 0% RH) at a constant temperature of 25° C.

[4] = 25° C./60% RH/uncovered, 1 week
[5] = 40° C./75% RH/uncovered, 1 week
[6] = 25° C./60% RH/uncovered, 1 month
[7] = 40° C./75% RH/uncovered, 1 month

Cc1cnc(-c2cc(O[C@@H](C)[C@@H](C)O)cc(C(=O)N[C@H](C)c3cnc(C(F)(F)F)nc3)c2F)s1 [Crystalline form A of hydrochloride]
HPLC Purity (area %) [1, 4]: 99.57 area %
HPLC purity Relative to starting (%) [1, 4]: 99.98%
HPLC Purity (area %) [1, 5]: 99.58 area %
HPLC purity Relative to starting (%) [1, 5]: 99.99%
change of HPLC purity after placement under the corresponding conditions [1]: no significant change
HPLC Purity (area %) ([1]; 60° C./sealed, 1 day): 99.58 area %
HPLC purity Relative to starting (%) ([1]; 60° C./sealed, 1 day): 99.99%
HPLC Purity (area %) ([1]; Starting): 99.59 area %
Crystalline form change ([2]; FaSSIF, 1 h): Yes^a
S: solubility ([2]; FaSSIF, 1 h): 9 µg/mL
pH of filtrate ([2]; FaSSIF, 1 h): 5.2
Crystalline form change ([2]; FaSSIF, 4 h): Yes^a
S: solubility ([2]; FaSSIF, 4 h): 9 µg/mL
pH of filtrate ([2]; FaSSIF, 4 h): 5.2
Crystalline form change ([2]; FaSSIF, 24 h): Yes^a
S: solubility ([2]; FaSSIF, 24 h): 14 µg/mL
pH of filtrate ([2]; FaSSIF, 24 h): 5.2
Crystalline form change ([2]; FeSSIF, 1 h): Yes^a
S: solubility ([2]; FeSSIF, 1 h): 30 µg/mL
pH of filtrate ([2]; FeSSIF, 1 h): 4.9
Crystalline form change ([2]; FeSSIF, 4 h): Yes^a
S: solubility ([2]; FeSSIF, 4 h): 27 µg/mL
pH of filtrate ([2]; FeSSIF, 4 h): 4.9
Crystalline form change ([2]; FeSSIF, 24 h): Yes^a
S: solubility ([2]; FeSSIF, 24 h): 23 µg/mL
pH of filtrate ([2]; FeSSIF, 24 h): 4.9
Crystalline form change ([2]; H2O, 1 h): Yes^a
S: solubility ([2]; H2O, 1 h): 4 µg/mL
pH of filtrate ([2]; H2O, 1 h): 2.1
Crystalline form change ([2]; H2O, 4 h): Yes^a
S: solubility ([2]; H2O, 4 h): 3 µg/mL
pH of filtrate ([2]; H2O, 4 h): 2.1
Crystalline form change ([2]; H2O, 24 h): Yes^a
S: solubility ([2]; H2O, 24 h): 4 µg/mL
pH of filtrate ([2]; H2O, 24 h): 2.1
solubility at 24 h ([2]; SGF, 37 °C, pH 1.8, simulated gastric fluid, thermodynamic from solid, SGF, 24 h, read-out: S: solubility): 11 µg/mL
Crystalline form change ([2]; SGF, 1 h): Yes^a
S: solubility ([2]; SGF, 1 h): 14 µg/mL
pH of filtrate ([2]; SGF, 1 h): 1.6
Crystalline form change ([2]; SGF, 4 h): Yes^a
S: solubility ([2]; SGF, 4 h): 11 µg/mL
pH of filtrate ([2]; SGF, 4 h): 1.6
Crystalline form change ([2]; SGF, 24 h): Yes^a
pH of filtrate ([2]; SGF, 24 h): 1.6
crystalline form after DVS test ([3]; 25° C.): remained unchanged
vapor sorption [3]: about 0.49%
hygroscopicity [3]: slight hygroscopicity

Cc1cnc(-c2cc(O[C@@H](C)[C@@H](C)O)cc(C(=O)N[C@H](C)c3cnc(C(F)(F)F)nc3)c2F)s1 [Crystalline form A of maleate]
HPLC Purity (area %) [1, 4]: 99.71 area %
HPLC purity Relative to starting (%) [1, 4]: 100.00%
HPLC Purity (area %) [1, 5]: 99.65 area %
HPLC purity Relative to starting (%) [1, 5]: 99.94%
change of HPLC purity after placement under the corresponding conditions [1]: no significant change
HPLC Purity (area %) ([1]; 60° C./sealed, 1 day): 99.60 area %
HPLC purity Relative to starting (%) ([1]; 60° C./sealed, 1 day): 99.89%
HPLC Purity (area %) ([1]; Starting): 99.71 area %
Crystalline form change ([2]; FaSSIF, 1 h): Yes^a
S: solubility ([2]; FaSSIF, 1 h): 6 µg/mL
pH of filtrate ([2]; FaSSIF, 1 h): 4.9
Crystalline form change ([2]; FaSSIF, 4 h): Yes^a
S: solubility ([2]; FaSSIF, 4 h): 7 µg/mL
pH of filtrate ([2]; FaSSIF, 4 h): 4.7
Crystalline form change ([2]; FaSSIF, 24 h): Yes^a
S: solubility ([2]; FaSSIF, 24 h): 7 µg/mL
pH of filtrate ([2]; FaSSIF, 24 h): 4.5
Crystalline form change ([2]; FeSSIF, 1 h): Yes^a
S: solubility ([2]; FeSSIF, 1 h): 20 µg/mL
pH of filtrate ([2]; FeSSIF, 1 h): 4.9
Crystalline form change ([2]; FeSSIF, 4 h): Yes^a
S: solubility ([2]; FeSSIF, 4 h): 20 µg/mL
pH of filtrate ([2]; FeSSIF, 4 h): 4.9
Crystalline form change ([2]; FeSSIF, 24 h): Yes^a
S: solubility ([2]; FeSSIF, 24 h): 21 µg/mL
pH of filtrate ([2]; FeSSIF, 24 h): 4.9
solubility in H2O compared with the other forms ([2]; H2O): highest solubility in H2O
Crystalline form change ([2]; H2O, 1 h): Yes^a
S: solubility ([2]; H2O, 1 h): 7 µg/mL
pH of filtrate ([2]; H2O, 1 h): 2.3
Crystalline form change ([2]; H2O, 4 h): Yes^a
S: solubility ([2]; H2O, 4 h): 7 µg/mL
pH of filtrate ([2]; H2O, 4 h): 2.3
Crystalline form change ([2]; H2O, 24 h): Yes^a
S: solubility ([2]; H2O, 24 h): 8 µg/mL
pH of filtrate ([2]; H2O, 24 h): 2.2
Crystalline form change ([2]; SGF, 1 h): Yes^a
S: solubility ([2]; SGF, 1 h): 10 µg/mL
pH of filtrate ([2]; SGF, 1 h): 1.7
Crystalline form change ([2]; SGF, 4 h): Yes^a
S: solubility ([2]; SGF, 4 h): 10 µg/mL
pH of filtrate ([2]; SGF, 4 h): 1.7
Crystalline form change ([2]; SGF, 24 h): Yes^a
S: solubility ([2]; SGF, 24 h): 9 µg/mL
pH of filtrate ([2]; SGF, 24 h): 1.7
crystalline form after DVS test ([3]; 25° C.): remained unchanged
vapor sorption when the humidity was more than 80% RH ([3]; 25° C., more than 80% RH): rapid vapor sorption
vapor sorption [3]: about 0.41%
hygroscopicity [3]: slight hygroscopicity

Cc1cnc(-c2cc(O[C@@H](C)[C@@H](C)O)cc(C(=O)N[C@H](C)c3cnc(C(F)(F)F)nc3)c2F)s1 [Crystalline form A of p-toluenesulfonate]
HPLC Purity (area %) [1, 6]: 99.92 area %
HPLC purity Relative to starting (%) [1, 6]: 100.00%
HPLC Purity (area %) [1, 4]: 99.92 area %
HPLC purity Relative to starting (%) [1, 4]: 100.00%
HPLC Purity (area %) [1, 7]: 99.92 area %
HPLC purity Relative to starting (%) [1, 7]: 100.00%
HPLC Purity (area %) [1, 5]: 99.92 area %
HPLC purity Relative to starting (%) [1, 5]: 100.00%
change of HPLC purity after placement under the corresponding conditions [1]: no significant change
HPLC Purity (area %) ([1]; 60° C./sealed, 1 day): 99.92 area %
HPLC purity Relative to starting (%) ([1]; 60° C./sealed, 1 day): 100.00%
HPLC Purity (area %) ([1]; Starting): 99.92 area %
Crystalline form change ([2]; FaSSIF, 1 h): Yes^b′ (transformed to free base crystalline form B + additional diffraction peaks)
S: solubility ([2]; FaSSIF, 1 h): 28 µg/mL
pH of filtrate ([2]; FaSSIF, 1 h): 2.6
Crystalline form change ([2]; FaSSIF, 4 h): Yes^a′
S: solubility ([2]; FaSSIF, 4 h): 13 µg/mL
pH of filtrate ([2]; FaSSIF, 4 h): 2.6
Crystalline form change ([2]; FaSSIF, 24 h): Yes^a′
S: solubility ([2]; FaSSIF, 24 h): 6 µg/mL
pH of filtrate ([2]; FaSSIF, 24 h): 2.6
Crystalline form change ([2]; FeSSIF, 1 h): Yes^b′ (transformed to free base crystalline form B + additional diffraction peaks)
S: solubility ([2]; FeSSIF, 1 h): 95 µg/mL
pH of filtrate ([2]; FeSSIF, 1 h): 4.8
Crystalline form change ([2]; FeSSIF, 4 h): Yes^b (transformed to free base crystalline form B)
S: solubility ([2]; FeSSIF, 4 h): 81 µg/mL
pH of filtrate ([2]; FeSSIF, 4 h): 4.8
Crystalline form change ([2]; FeSSIF, 24 h): Yes^a′
S: solubility ([2]; FeSSIF, 24 h): 28 µg/mL
pH of filtrate ([2]; FeSSIF, 24 h): 4.8
Crystalline form change ([2]; H2O, 1 h): Yes^a
S: solubility ([2]; H2O, 1 h): 6 µg/mL
pH of filtrate ([2]; H2O, 1 h): 1.8
Crystalline form change ([2]; H2O, 4 h): Yes^a
S: solubility ([2]; H2O, 4 h): 5 µg/mL
pH of filtrate ([2]; H2O, 4 h): 1.8
Crystalline form change ([2]; H2O, 24 h): Yes^a
S: solubility ([2]; H2O, 24 h): 5 µg/mL
pH of filtrate ([2]; H2O, 24 h): 1.8
Crystalline form change ([2]; SGF, 1 h): Yes^b′ (transformed to free base crystalline form B + additional diffraction peaks)
S: solubility ([2]; SGF, 1 h): 37 µg/mL
pH of filtrate ([2]; SGF, 1 h): 1.5
Crystalline form change ([2]; SGF, 4 h): Yes^a+b′
S: solubility ([2]; SGF, 4 h): 33 µg/mL
pH of filtrate ([2]; SGF, 4 h): 1.5
Crystalline form change ([2]; SGF, 24 h): Yes^a′
S: solubility ([2]; SGF, 24 h): 12 µg/mL
pH of filtrate ([2]; SGF, 24 h): 1.5
1-hour solubility in the three biological vehicles other than H2O compared with the other forms ([2]; SGF, FaSSIF, FeSSIF, 1 h): highest 1-hour solubility
crystalline form after DVS test ([3]; 25° C.): remained unchanged
vapor sorption [3]: about 0.12%
hygroscopicity [3]: almost no hygroscopicity
